PMC5693942 (Scientific Reports, 2017)
Where “and” joins values, the source holds several entries; their conditions need not be identical. Equal values may be shown once.

What was measured:
P. promelas = settings: ref [34]; cited from earlier work
D. magna = settings: ref [34]; cited from earlier work
Tetrahymena thermophila = assay: microbe, parasite or virus in culture; format: cell-based
Experimental: The tests were performed in accordance with the protocols provided by the manufacturer. […] The tests were carried out in disposable spectrophotometric cells of 1 cm path-length, to enable the measurement of the optical density (OD) at 440 nm. […] This change in OD over the time period is used to quantify the degree of inhibition and subsequent calculation of the EC50. Each concentration was repeated in duplicate.

[1] = River water simulating microcosms (degradation of FL); settings: river water, 1 µg L^−1 racemic FL, 16 days
Daphnia magna = Daphnia magna acute 48 h immobilization assay (Daphtoxkit); format: in vivo; settings: 48 h;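 note: test concentrations in mg per L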
Experimental: Six concentration levels (5 concentrations plus control, four replicate beakers for each concentrations, five individual for each beaker) were tested. […] Each experiment was repeated in triplicate.

[2] = Activated sludge simulating microcosms (degradation of FL, formation of NFL); format: physicochemical

In the case of `CNCC[C@H](Oc1ccc(C(F)(F)F)cc1)c1ccccc1` [(S)-FL], the LOEC7d -feeding (P. promelas) is given as 0.05 mg/L, the LOEC7d -growth (P. promelas) is given as 0.05 mg/L and the LOEC7d -survival (P. promelas) is given as 0.10 mg/L. The LOEC21d -grazing (D. magna) was 0.20 mg/L, the LOEC21d -immobilization (D. magna) was 0.44 mg/L and the LOEC21d -reproduction (D. magna) was 0.44 mg/L. For the same molecule, the “% I (percentage inhibition)” value (Tetrahymena thermophila; definitive test, conc. 0.104) was -1.720%, the “% I (percentage inhibition)” value (Tetrahymena thermophila; definitive test, conc. 0.313) was 4.194% and the “% I (percentage inhibition)” value (Tetrahymena thermophila; definitive test, conc. 0.535) was 0.108%. For the same molecule, the “% I (percentage inhibition)” value (Tetrahymena thermophila; definitive test, conc. 10.446) was 7.204%, the “% I (percentage inhibition)” value (Tetrahymena thermophila; definitive test, conc. 20.892) was 22.366% and the “% I (percentage inhibition)” value (Tetrahymena thermophila; definitive test, conc. 68.945) was 73.441%. The “% I (percentage inhibition)” value (Tetrahymena thermophila; definitive test, conc. 104.462) was 83.118%, the “% I (percentage inhibition)” value (Tetrahymena thermophila; range test, conc. 0.005) was 22.617% and the “% I (percentage inhibition)” value (Tetrahymena thermophila; range test, conc. 0.050) was 21.857%. The “% I (percentage inhibition)” value (Tetrahymena thermophila; range test, conc. 0.500) was 26.510%, the “% I (percentage inhibition)” value (Tetrahymena thermophila; range test, conc. 5.000) was 26.130% and the “% I (percentage inhibition)” value (Tetrahymena thermophila; range test, conc. 50.000) was 57.653%. For the same molecule, the “removal of FL” value ([1]; dark biotic conditions (DBR)) was 60.4%, the “removal of FL” value ([1]; light abiotic conditions (LAR)) was 74.5% and the “removal of FL” value ([1]; light biotic reactor (LBR)) was 98.4%. For the same molecule, the “Average effect (N immobile, 5 daphnids per replicate)” value (Daphnia magna; concentration 0.5) was 0.25, the “Average effect (N immobile, 5 daphnids per replicate)” value (Daphnia magna; concentration 1.5) was 1 and the “Average effect (N immobile, 5 daphnids per replicate)” value (Daphnia magna; concentration 5) was 3.25. The “Average effect (N immobile, 5 daphnids per replicate)” value (Daphnia magna; concentration 16) was 5, the “Average effect (N immobile, 5 daphnids per replicate)” value (Daphnia magna; concentration 50) was 5 and the kbiol ([2]; 10 µg L^−1) was 0.04 LgSS ^−1h^−1. The t1/2biol ([2]; 10 µg L^−1) was 19 h and 18.9 h, the k1 ([2]; 10 µg L^−1, pseudo-first order) was 0.07 h⁻¹ and the kbiol ([2]; 100 µg L^−1) was 0.04 LgSS ^−1h^−1. The t1/2biol ([2]; 100 µg L^−1) was 19 h and 19.4 h, the k1 ([2]; 100 µg L^−1, pseudo-first order) was 0.07 h⁻¹ and the transformation / removal ([2]; 100 µg L^−1 microcosm, 24 h) was 80%.
